Test system: fibrinogen receptor
Test: fibrinogen receptor binding test with ^3 H-BIBU 52 on human thrombocytes in plasma
Settings: in the presence of plasma, non-labelled BIBU 52 as competitor
Description: The fibrinogen receptor binding test according to the invention was carried out, for example, using (3S,5S)-5-[(4'-amidino-4-biphenylyl)-oxymethyl]-3-carboxymethyl-pyrrolidin-2-one-[3-^3 H-4-biphenylyl][=^3 H-BIBU 52 ZW] as ligand in the following manner:
A suspension of human thrombocytes in plasma is incubated with ^3 H-BIBU 52 and varying concentrations of the substance to be tested. The free and bound ligand is separated off by centrifuging and quantitatively determined by scintillation counting. The inhibition of the ^3 H-BIBU 52 binding by the test substance is determined from the measurements obtained.
In order, for example, to measure the competition of binding of ^3 H-BIBU 52 by non-labelled BIBU 52, blood is taken from an anticubital vein and anticoagulated with trisodium citrate (final concentration 13 mM). The blood is centrifuged for 10 minutes at 170 ×g and the supernatant platelet-rich plasma (PRP) is removed. The remaining blood is sharply centrifuged once more in order to obtain plasma. The PRP is diluted with autologous plasma 1:10. […] 100 μl thereof are measured in order to determine the free ligand. The pellet is dissolved in 500 μl of 0.2N NaOH, 450 μl are mixed with 25 μl of 5N HCl and measured. The residual plasma remaining in the pellet is determined from the ^14 C-content and the bound ligand is determined from the ^3 H-measurement. […]

binding of tritiated BIBU 52 to human thrombocytes (FIG. 1): supression of binding
Structure (SMILES): N=C(N)c1ccc(-c2ccc(OC[C@@H]3C[C@@H](CC(=O)O)C(=O)N3)cc2)cc1 [BIBU 52, (3S,5S)-5-[(4'-amidino-4-biphenylyl)-oxymethyl]-3-carboxymethyl-pyrrolidin-2-one]
